Consider ten compounds from ChEMBL document CHEMBL1201862, “PubChem BioAssay data set” (2004).

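Where inhibition never reached the appropriate level, the endpoint shown equals the highest concentration tested. Otherwise, values were interpolated linearly from a five-concentration, 48-hour dose response in 96-well plates. GI50 = concentration required for 50% inhibition of growth.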 Calls of active or inactive are those of the source. Cut-off read from the data, not from the text of the source: active = GI50 up to about 1.1 µM and inactive = higher.

Some test systems named below: NCI-H460; SW-620; SR; DU-145; OVCAR-5; CAKI-1; BT-549; UO-31; SK-MEL-5; HCT-15; CCRF-CEM; NCI-H226; SN12C; IGROV-1; HCC 2998; OVCAR-4; A498; SNB-19; UACC-257; M14.
What all share (experiment): DTP human tumour cell line panel, 48 h

One may read the GI50 as the concentration at which growth is held to half of that of the control. As for `COc1ccc(NC(C)=O)cc1N1C(=O)/C(=C\c2cccc(Oc3ccccc3)c2)SC1c1ccccc1` (stereo not drawn), the GI50 was 36.4 µM (inactive) in the assay with NCI-H460; 21.6 µM (inactive) in the assay on SW-620; 3.7 µM (inactive) in the assay with SR; 35.3 µM (inactive) in the assay with DU-145; 29.3 µM (inactive) with OVCAR-5; 28.4 µM (inactive) in the assay on CAKI-1. Also, the GI50 is 30.5 µM (inactive) in the assay on BT-549; 17.3 µM (inactive) in the assay with UO-31; 30.5 µM (inactive) in the assay on SK-MEL-5; 33.1 µM with HCT-15; 10.3 µM (inactive) with CCRF-CEM; 82.2 µM (inactive) with NCI-H226. In addition, the GI50 is 20.4 µM (inactive) in the assay on SN12C; 27.4 µM (inactive) in the assay on IGROV-1; 36.1 µM (inactive) in the assay on HCC 2998; 14.2 µM (inactive) with OVCAR-4; 56.4 µM (inactive) in the assay on A498; 69.3 µM (inactive) in the assay with SNB-19. The GI50 is 40.6 µM (inactive) in the assay with UACC-257 and 34.1 µM (inactive) in the assay with M14.
Take `O=[N+]([O-])/C=C/c1cc2ccc3ccccc3c2[nH]1`: the GI50 in the assay on NCI-H460 is 2.11 µM (inactive); in the assay with SW-620 it was 1.49 µM (inactive); with SR it was 0.555 µM (active); in the assay with DU-145, 1.9 µM (inactive); with OVCAR-5 it was 2.29 µM (inactive); in the assay with CAKI-1, 2.23 µM (inactive). For the same compound, the GI50 in the assay with BT-549 is 1.89 µM (inactive); in the assay on UO-31, 1.56 µM (inactive); in the assay with SK-MEL-5, 1.64 µM (inactive); in the assay on HCT-15 it was 1.72 µM; in the assay on CCRF-CEM, 0.299 µM (active); in the assay on NCI-H226 it was 1.06 µM (active). Further, the GI50 in the assay with SN12C is 1.86 µM (inactive); in the assay with IGROV-1, 0.527 µM (active); in the assay on HCC 2998, 1.92 µM (inactive); in the assay with OVCAR-4 it was 1.98 µM (inactive); in the assay on A498, 1.23 µM (inactive); in the assay on SNB-19 it was 2.66 µM (inactive). The GI50 with UACC-257 is 2.24 µM (inactive); with M14, 1.64 µM (inactive).
With `C/C(=N\Nc1nc2cc(C)ccc2s1)c1ccccn1`, the GI50 in the assay with NCI-H460 is 0.69 µM (active); in the assay with SW-620, 0.209 µM (active); in the assay on SR it was 0.232 µM (active); in the assay with DU-145, 0.652 µM (active); with OVCAR-5 it was 0.661 µM (active); in the assay on CAKI-1, 0.0562 µM (active). Also, the GI50 with BT-549 is 6.22 µM (inactive); in the assay with UO-31, 0.117 µM (active); with SK-MEL-5 it was 0.404 µM (active); with HCT-15, 0.272 µM; with CCRF-CEM it was 0.149 µM (active); with NCI-H226, 0.348 µM (active). The GI50 is 0.401 µM (active) with SN12C; 0.199 µM (active) in the assay on IGROV-1; 1.29 µM (inactive) with HCC 2998; 0.324 µM (active) in the assay on OVCAR-4; 1.09 µM (active) in the assay on A498; 1.38 µM (inactive) in the assay with SNB-19. In addition, the GI50 in the assay on UACC-257 is 0.5 µM (active); in the assay with M14, 0.417 µM (active).
`COC(=O)CCCC(=O)/C(=N\Nc1ccc(Cl)cc1)Nc1c(Cl)cccc1Cl`: the GI50 is 26.7 µM (inactive) with NCI-H460; > 100 µM (inactive) in the assay on SW-620; 20.5 µM (inactive) in the assay with SR; 52.4 µM (inactive) with DU-145; > 100 µM (inactive) in the assay on OVCAR-5; > 100 µM (inactive) in the assay on CAKI-1. For the same compound, the GI50 with BT-549 was > 100 µM (inactive); with UO-31, 34.4 µM (inactive); in the assay with SK-MEL-5, 32.8 µM (inactive); in the assay with HCT-15, 72.3 µM; in the assay on CCRF-CEM it was 26.2 µM (inactive); in the assay with NCI-H226, 45.2 µM (inactive). Further, the GI50 with SN12C is > 100 µM (inactive); with IGROV-1, > 81.7 µM (inactive); in the assay with HCC 2998 it was 58.7 µM (inactive); with OVCAR-4 it was 46.3 µM (inactive); in the assay on A498 it was 29.5 µM (inactive); in the assay on SNB-19 it was 35.7 µM (inactive). The GI50 in the assay with UACC-257 is 59 µM (inactive); in the assay on M14, > 92.5 µM (inactive).
As for `Cc1nc2c(o1)C(=O)c1ccccc1/C2=N\c1ccccc1`, the GI50 with NCI-H460 was 5.66 µM (inactive); in the assay with SW-620, 2.58 µM (inactive); in the assay with SR it was 4.3 µM (inactive); in the assay on DU-145 it was 1.74 µM (inactive); in the assay with OVCAR-5, 5.85 µM (inactive); with CAKI-1, 17.9 µM (inactive). Also, the GI50 is 1.68 µM (inactive) in the assay with BT-549; 2.98 µM (inactive) in the assay on UO-31; 1.35 µM (inactive) in the assay with SK-MEL-5; 2.25 µM in the assay with HCT-15; 4.04 µM (inactive) in the assay with CCRF-CEM; 13.6 µM (inactive) in the assay with NCI-H226. In addition, the GI50 with SN12C was 2.04 µM (inactive); in the assay on IGROV-1, 7.98 µM (inactive); with HCC 2998, 15.2 µM (inactive); in the assay with OVCAR-4, 2.4 µM (inactive); in the assay on A498 it was > 10 µM (inactive); in the assay with SNB-19, 3.96 µM (inactive). For the same compound, the results for the GI50 in the assay on UACC-257 and with M14 were 2.05 µM (inactive) and 0.841 µM (active), respectively.
In the case of `COc1ccc2c3c(ccc2c1)NC(C(=O)O)CC3` (stereo not drawn), the GI50 with NCI-H460 was 49.8 µM (inactive); with SW-620, 35.2 µM (inactive); in the assay with SR it was 18.5 µM (inactive); in the assay with DU-145, > 100 µM (inactive); in the assay on OVCAR-5, > 100 µM (inactive); with CAKI-1, 88.3 µM (inactive). In addition, the GI50 in the assay with BT-549 was > 100 µM (inactive); in the assay on UO-31, 47 µM (inactive); in the assay on SK-MEL-5, 27.4 µM (inactive); in the assay on HCT-15, 51.8 µM; with NCI-H226, > 100 µM (inactive); in the assay with SN12C it was 63.1 µM (inactive). Further, the GI50 was 40.8 µM (inactive) with IGROV-1; 44.3 µM (inactive) with HCC 2998; 65.3 µM (inactive) in the assay on OVCAR-4; 27.7 µM (inactive) with A498; 56.8 µM (inactive) with SNB-19; > 100 µM (inactive) in the assay on UACC-257. For the same compound, the GI50 with M14 is 45.1 µM (inactive).
In the case of `CCOC(=O)C[n+]1cccc(C2(c3cc4ccccc4[nH]3)OCCO2)c1`, the GI50 in the assay with NCI-H460, with SW-620, in the assay on SR, in the assay on DU-145, in the assay with OVCAR-5 and with CAKI-1 was > 100 µM (inactive) each time. Besides, the GI50 in the assay on BT-549 was > 100 µM (inactive); in the assay with UO-31 it was > 100 µM (inactive); in the assay on SK-MEL-5, > 100 µM (inactive); in the assay with HCT-15, > 100 µM; in the assay on CCRF-CEM, > 100 µM (inactive); in the assay with NCI-H226 it was > 100 µM (inactive). Also, the GI50 with IGROV-1, with HCC 2998, in the assay on OVCAR-4, in the assay with A498, in the assay on SNB-19 and in the assay with UACC-257 was > 100 µM (inactive) each time. The GI50 with M14 is > 100 µM (inactive).
For `Cc1nc(N)nc(N)c1N1CCN(Cc2ccccc2)CC1`, the GI50 in the assay with NCI-H460 is 5.87 µM (inactive); with SW-620 it was 38.9 µM (inactive); in the assay on SR it was 36.6 µM (inactive); in the assay on DU-145, 37.2 µM (inactive); in the assay with OVCAR-5, > 37.8 µM (inactive); in the assay with CAKI-1, 37.1 µM (inactive). Further, the GI50 in the assay with BT-549 was > 93.3 µM (inactive); in the assay with UO-31, 45.4 µM (inactive); in the assay with SK-MEL-5, > 37.8 µM (inactive); in the assay with HCT-15, 9.42 µM; in the assay on CCRF-CEM, 16.5 µM (inactive); in the assay with NCI-H226, 12.1 µM (inactive). In addition, the GI50 with SN12C was 56.1 µM (inactive); in the assay with IGROV-1, 19.9 µM (inactive); in the assay with HCC 2998, 25.2 µM (inactive); with OVCAR-4, > 100 µM (inactive); in the assay on A498, 42.5 µM (inactive); in the assay with SNB-19, 55.5 µM (inactive). The results for the GI50 with UACC-257 and in the assay on M14 were 9.64 µM (inactive) and 13.3 µM (inactive), respectively.
On to `CSc1[nH]nc(N)c1C(=O)Nc1ccccc1`, for which the GI50 in the assay with NCI-H460, in the assay with SW-620, in the assay with SR, in the assay with DU-145, with OVCAR-5 and in the assay with CAKI-1 was > 100 µM (inactive) throughout. The GI50 in the assay with BT-549 is > 100 µM (inactive); in the assay on UO-31, > 100 µM (inactive); with SK-MEL-5 it was > 100 µM (inactive); in the assay on HCT-15 it was > 100 µM; in the assay on CCRF-CEM, > 100 µM (inactive); with NCI-H226, > 100 µM (inactive). The GI50 with SN12C, in the assay with IGROV-1, with HCC 2998, with OVCAR-4, in the assay with A498 and with SNB-19 was > 100 µM (inactive) in each case. The GI50 with UACC-257 and in the assay on M14 was > 100 µM (inactive) in each case.
Turning to `O=C(NC1=C(Cl)C(=O)c2ccccc2C1=O)C(=O)c1c(O)c2ccccc2oc1=O`, the GI50 with NCI-H460 was 2.54 µM (inactive); with SW-620, 5.22 µM (inactive); in the assay on SR, 3.04 µM (inactive); in the assay on DU-145 it was 1.49 µM (inactive); in the assay with OVCAR-5, 11.5 µM (inactive); in the assay on CAKI-1, 9.66 µM (inactive). The GI50 with BT-549 was 3.06 µM (inactive); with UO-31, 7.66 µM (inactive); with SK-MEL-5 it was 0.368 µM (active); with HCT-15, 3.18 µM; with CCRF-CEM it was 5.94 µM (inactive); in the assay with NCI-H226 it was 9.18 µM (inactive). For the same compound, the GI50 in the assay with SN12C is 3.7 µM (inactive); in the assay on IGROV-1 it was 3.27 µM (inactive); with HCC 2998, 8.11 µM (inactive); with OVCAR-4 it was 7.4 µM (inactive); with A498 it was 14.7 µM (inactive); in the assay with SNB-19 it was 4.6 µM (inactive). Moreover, the GI50 in the assay on UACC-257 is 1.51 µM (inactive); with M14, 1.83 µM (inactive).
